Assay results reported in patent US20110060048A1, “Removing alcohol in vivo through esterification” (priority 2009, published 2011).
Where two headings read alike, the source gives them in different places.

How the values were obtained:
[1] = eight male volunteers, alcoholic beverage followed by 30 grams of fructose or sucrose, hourly measurements; cited from earlier work
[2] = for C2H5OH % Decrease at Equilibrium, Trial 2 / C2H5OH % Decrease at Equilibrium, Trial 3 / C2H5OH % Decrease at Equilibrium, Trial 4 / C2H5OH % Decrease at Equilibrium, Trial 5 / C2H5OH % Decrease at Equilibrium, Average / C2H5OH % Decrease at Equilibrium, Trial 1: equal acetic acid
Experimental: Titrations with potassium permanganate (KMnO4) were later performed after the contents of each beaker received 5 minutes each of vigorous stirring and 25 minutes of inactivity to compare the final amount of ethanol left with the original amount.
In the following we describe the detailed procedure of in vitro experiment to verify the validity of reducing the amount of ethanol by esterification: • 1. Label four 100-mL beakers, 0.4 M, 0.6 M, 0.8 M, and 1.0 M. • 2. Put 17.15 mL of distilled water into each. • 3. Add 0.4 mL of concentrated ethanol to the first beaker, 0.6 mL to the second, 0.8 mL to the third, and 1.0 mL to the fourth. Swivel each beaker gently for 20-30 seconds to ensure mixing. See calculations below for explanation. • 4. Add another 17.15 mL of water to each beaker • 5. […] See calculations below for explanation. • 6. Stir each sample vigorously for five minutes in succession. […] Put on latex gloves before handling potassium permanganate. • 8. Set up two burettes, and fill each with approximately 100 mL of 0.2 M potassium permanganate. This will enable two titrations to be simultaneously done. • 9. Record the initial volume of potassium permanganate present in both burettes. • 10. Place 1.0 M and 0.8 M beakers on hot plate, and turn to power level 3. Heating quickens the titration process. • 11. Slowly drip KMnO4 into beakers while stirring. Make sure that each beaker is consistently titrated with the same burette to ensure that the exact volumes of KMnO4 that each beaker received can be easily calculated. • 12. Potassium permanganate is purple in color. When reacted with ethanol, a brown color (manganese oxide, MnO2) appears. The reaction is as follows:
When potassium permanganate ceases to be converted into manganese oxide, and the purple color stays, the titration is finished. There is no ethanol left in the beaker to react with potassium permanganate. • 13. Remove both beakers from hot plate. Measure the volume of potassium permanganate remaining in each burette. Subtract from the original volumes to find the volume of KMnO4 consumed in each reaction. • 14. Repeat steps 9-13 for the 0.6 M and 0.4 M beakers. • 15. Use stoichiometry to calculate the molar amount of 0.2 M potassium permanganate used in each titration. • 16. Ethanol and potassium permanganate react in a 3:4 molar ratio, according to the equation 3C2H5OH+4KMnO4→3CH3COOH+4MnO2+4KOH+H2O.
Again, use a chain calculation to calculate the molar amount of ethanol remaining in each beaker, then divide by […] to convert to molarity. Compare to the molarity of ethanol originally in each beaker. Calculate % error. • 17. Results (see Table 2)

O=C(CO)[C@@H](O)[C@H](O)[C@H](O)CO [fructose]
percent of ethanol decrease (plateau, on average) [1]: 29%

OC[C@H]1O[C@@](CO)(O[C@H]2O[C@H](CO)[C@@H](O)[C@H](O)[C@H]2O)[C@@H](O)[C@@H]1O [sucrose]
percent of ethanol decrease (plateau, on average) [1]: 29%

CC(=O)O [acetic acid]
decrease in the amount of ethanol when the system reaches equilibrium ([2]; 0.4-1.0 M ethanol with same volume and concentration of acetic acid): 79-86% | reduction of the ethanol amount ([2]; equal molar number of acetic acid added to the ethanol solution, 5 repeats): 80-90% | C2H5OH % Decrease at Equilibrium, Trial 2 ([2]; initial C2H5OH 0.4 M): 78.1% | C2H5OH % Decrease at Equilibrium, Trial 3 ([2]; initial C2H5OH 0.4 M): 81.5% | C2H5OH % Decrease at Equilibrium, Trial 4 ([2]; initial C2H5OH 0.4 M): 81.2% | C2H5OH % Decrease at Equilibrium, Trial 5 ([2]; initial C2H5OH 0.4 M): 80.0% | C2H5OH % Decrease at Equilibrium, Average ([2]; initial C2H5OH 0.4 M, average of trials): 80.2% | C2H5OH % Decrease at Equilibrium, Trial 2 ([2]; initial C2H5OH 0.6 M): 82.7% | C2H5OH % Decrease at Equilibrium, Trial 3 ([2]; initial C2H5OH 0.6 M): 83.8% | C2H5OH % Decrease at Equilibrium, Trial 4 ([2]; initial C2H5OH 0.6 M): 83.7% | C2H5OH % Decrease at Equilibrium, Trial 5 ([2]; initial C2H5OH 0.6 M): 82.5% | C2H5OH % Decrease at Equilibrium, Average ([2]; initial C2H5OH 0.6 M, average of trials): 83.2% | C2H5OH % Decrease at Equilibrium, Trial 1 ([2]; initial C2H5OH 0.8 M): 89.1% | C2H5OH % Decrease at Equilibrium, Trial 2 ([2]; initial C2H5OH 0.8 M): 86.2% | C2H5OH % Decrease at Equilibrium, Trial 3 ([2]; initial C2H5OH 0.8 M): 84.7% | C2H5OH % Decrease at Equilibrium, Trial 4 ([2]; initial C2H5OH 0.8 M): 84.6% | C2H5OH % Decrease at Equilibrium, Trial 5 ([2]; initial C2H5OH 0.8 M): 85.5% | C2H5OH % Decrease at Equilibrium, Average ([2]; initial C2H5OH 0.8 M, average of 5 trials): 86.0% | C2H5OH % Decrease at Equilibrium, Trial 1 ([2]; initial C2H5OH 1.0 M): 91.3% | C2H5OH % Decrease at Equilibrium, Trial 2 ([2]; initial C2H5OH 1.0 M): 88.8% | C2H5OH % Decrease at Equilibrium, Trial 3 ([2]; initial C2H5OH 1.0 M): 86.5% | C2H5OH % Decrease at Equilibrium, Trial 4 ([2]; initial C2H5OH 1.0 M): 91.1% | C2H5OH % Decrease at Equilibrium, Trial 5 ([2]; initial C2H5OH 1.0 M): 90.4% | C2H5OH % Decrease at Equilibrium, Average ([2]; initial C2H5OH 1.0 M, average of 5 trials): 89.6%
